For the assay, the system named is CD2F1 mice, L1210 leukemia ip, survival T/C. In words: NCI In Vivo Anticancer Drug Screen. Data for tumor model L1210 Leukemia (intraperitoneal) in CD2F1 (CDF1) mice. As to conditions: higher = longer survival. A digest of the protocol: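 Antitumor effect is scored in animals hosting a serially transplanted tumor. Values compare compound-dosed animals against vehicle-only controls as a simple quotient.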

Setting [1] is: endpoint: mean survival time, dose: 50.0 mg/kg/injection, schedule: Q01DX009 (ip), vehicle: saline with Tween-80.
[2] abbreviates: endpoint: mean survival time, dose: 100.0 mg/kg/injection, schedule: Q01DX009 (ip), vehicle: saline with Tween-80.
The mark [3] stands for this setting: endpoint: mean survival time, dose: 200.0 mg/kg/injection, schedule: Q01DX009 (ip), vehicle: saline with Tween-80.
Setting [4] is: endpoint: mean survival time, dose: 100.0 mg/kg/injection, schedule: Q01DX001 (ip), vehicle: saline.
Setting [5] is: endpoint: mean survival time, dose: 200.0 mg/kg/injection, schedule: Q01DX001 (ip), vehicle: saline.
Where [6] appears, read: endpoint: mean survival time, dose: 400.0 mg/kg/injection, schedule: Q01DX009 (ip), vehicle: saline with Tween-80.
Where [7] appears, read: endpoint: mean survival time, dose: 100.0 mg/kg/injection, schedule: Q04DX002 (ip), vehicle: saline with Tween-80.
[8] abbreviates: endpoint: mean survival time, dose: 200.0 mg/kg/injection, schedule: Q04DX002 (ip), vehicle: saline with Tween-80.
The mark [9] stands for this setting: endpoint: mean survival time, dose: 400.0 mg/kg/injection, schedule: Q04DX002 (ip), vehicle: saline with Tween-80.
Where [10] appears, read: endpoint: mean survival time, dose: 100.0 mg/kg/injection, schedule: Q04DX003 (ip), vehicle: saline with Tween-80.
Setting [11] is: endpoint: mean survival time, dose: 200.0 mg/kg/injection, schedule: Q04DX003 (ip), vehicle: saline with Tween-80.
Where [12] appears, read: endpoint: mean survival time, dose: 400.0 mg/kg/injection, schedule: Q01DX001 (ip), vehicle: saline.
The mark [13] stands for this setting: endpoint: mean survival time, dose: 100.0 mg/kg/injection, schedule: Q01DX009 (ip), vehicle: other.
[14] abbreviates: endpoint: mean survival time, dose: 200.0 mg/kg/injection, schedule: Q01DX009 (ip), vehicle: other.
[15] abbreviates: endpoint: mean survival time, dose: 25.0 mg/kg/injection, schedule: Q01DX009 (ip), vehicle: saline.
[16] abbreviates: endpoint: mean survival time, dose: 50.0 mg/kg/injection, schedule: Q01DX009 (ip), vehicle: saline.
[17] abbreviates: endpoint: mean survival time, dose: 100.0 mg/kg/injection, schedule: Q01DX009 (ip), vehicle: saline.
[18] abbreviates: endpoint: mean survival time, dose: 200.0 mg/kg/injection, schedule: Q01DX009 (ip), vehicle: saline.
Where [19] appears, read: endpoint: mean survival time, dose: 400.0 mg/kg/injection, schedule: Q01DX009 (ip), vehicle: saline.
The mark [20] stands for this setting: endpoint: mean survival time, dose: 12.5 mg/kg/injection, schedule: Q01DX009 (ip), vehicle: other.
[21] abbreviates: endpoint: mean survival time, dose: 25.0 mg/kg/injection, schedule: Q01DX009 (ip), vehicle: other.

Structures are written as SMILES. Several values for one entry are separate records, joined by “and”; a condition that tells them apart may be missing. Equal values may be shown once. Toxic doses and inconclusive results are not listed.

Regarding `O=C(CNC(=O)Nc1ccc(F)cc1)N/N=C/c1c(O)ccc2ccccc12`, the T/C runs as follows: under setting [1], 92 % of control; under setting [2], 96 % of control; under setting [3], 96 % of control.
As for `OCC1OC(Oc2ccccc2)C(O)C1O` (stereo not given), the T/C is, setting by setting: (endpoint: mean survival time, dose: 75.0 mg/kg/injection, schedule: Q01DX001 (ip), vehicle: saline) 93 % of control; (endpoint: mean survival time, dose: 150.0 mg/kg/injection, schedule: Q01DX001 (ip), vehicle: saline) 98 % of control; (endpoint: mean survival time, dose: 300.0 mg/kg/injection, schedule: Q01DX001 (ip), vehicle: saline) 98 % of control.
In the case of `CN(C)c1ccc(/C=N/N=C(/N)N[N+](=O)[O-])cc1`, the T/C under setting [4] was 94 % of control and the T/C under setting [5] was 97 % of control.
Take `O=P(O)(c1cc(Cl)cc(Cl)c1)c1cc(Cl)cc(Cl)c1`: the T/C runs as follows: (endpoint: mean survival time, dose: 18.8 mg/kg/injection, schedule: Q04DX003 (ip), vehicle: saline) 100 % of control; (endpoint: mean survival time, dose: 37.5 mg/kg/injection, schedule: Q04DX003 (ip), vehicle: saline) 100 % of control; (endpoint: mean survival time, dose: 75.0 mg/kg/injection, schedule: Q04DX003 (ip), vehicle: saline) 102 % of control.
For the compound `O=C(Cc1ccccc1)NC(CSSCC(NC(=O)Cc1ccccc1)C(=O)O)C(=O)O` (stereo not given), the T/C was 101 % of control under setting [2], 98 % of control under setting [3] and 93 % of control under setting [6].
Consider `O=C1CC2CCCCN2C2=C1CCCC2` (stereo not given), for which the T/C (endpoint: mean survival time, dose: 100.0 mg/kg/injection, schedule: Q04DX003 (ip), vehicle: acetone) was 97 % of control.
Consider `CCOC(=O)Nc1cc(NCCc2ccccc2)c(N)c(N)n1`, for which the T/C runs as follows: (endpoint: mean survival time, dose: 50.0 mg/kg/injection, schedule: Q01DX001 (ip), vehicle: saline) 101 % of control; under setting [4], 92 % of control.
As for `CCOc1ccc(OCC)c(NC(=O)Nc2ccccc2OC)c1`, the T/C under setting [7] was 96 % of control, the T/C under setting [8] is 96 % of control and the T/C under setting [9] is 96 % of control.
With `CC(=O)Nc1cccc(C[P+](c2ccccc2)(c2ccccc2)c2ccccc2)c1`, the T/C reads like this: under setting [10], 92 % of control; under setting [11], 92 % of control.
As to `CCCCCCC(=O)CCCCCC/C=C/CC(O)C(O)C(N)(CO)C(=O)O` (stereo not given), the T/C (endpoint: mean survival time, dose: 12.5 mg/kg/injection, schedule: Q04DX002 (ip), vehicle: saline with Tween-80) was 86 % of control.
With `N#C/C(=C\c1ccco1)c1ccc([N+](=O)[O-])cc1`, the T/C runs as follows: (endpoint: mean survival time, dose: 6.25 mg/kg/injection, schedule: Q04DX003 (ip), vehicle: saline with Tween-80) 102 % of control; (endpoint: mean survival time, dose: 12.5 mg/kg/injection, schedule: Q04DX003 (ip), vehicle: saline with Tween-80) 102 % of control; (endpoint: mean survival time, dose: 25.0 mg/kg/injection, schedule: Q04DX003 (ip), vehicle: saline with Tween-80) 100 % of control; (endpoint: mean survival time, dose: 100.0 mg/kg/injection, schedule: Q01DX001 (ip), vehicle: Klucel (hydroxypropylcellulose) (HPC)) 106 % of control; (endpoint: mean survival time, dose: 200.0 mg/kg/injection, schedule: Q01DX001 (ip), vehicle: Klucel (hydroxypropylcellulose) (HPC)) 95 % of control; (endpoint: mean survival time, dose: 400.0 mg/kg/injection, schedule: Q01DX001 (ip), vehicle: Klucel (hydroxypropylcellulose) (HPC)) 94 % of control.
`O=C1OC(c2ccccc2)=N/C1=C\c1cccc(O)c1`: the T/C by setting is: under setting [2], 104 % of control; under setting [3], 109 % of control; under setting [6], 98 % of control.
Take `CCCC(C)OC(=O)c1ccc([N+](=O)[O-])cc1` (stereo not given): the T/C was 100 % of control under setting [4], 110 % of control under setting [5] and 93 % of control under setting [12].
`CCOC(=O)Nc1cc(F)ccc1F`: the T/C was 103 % of control under setting [13]; 94 % of control under setting [14]; 95 % of control (endpoint: mean survival time, dose: 400.0 mg/kg/injection, schedule: Q01DX009 (ip), vehicle: other).
For the compound `NC(CSC1c2ccccc2-c2ccccc21)C(=O)O` (stereo not given), the T/C under setting [15] was 102 % of control; the T/C under setting [16] was 103 % of control; the T/C under setting [17] was 102 % of control; the T/C under setting [18] is 96 % of control; the T/C under setting [19] was 103 % of control.
As to `O=C(NNC(=O)C(F)(F)F)c1ccccc1`, the T/C reads like this: under setting [20], 92 % of control; under setting [21], 94 % of control; (endpoint: mean survival time, dose: 50.0 mg/kg/injection, schedule: Q01DX009 (ip), vehicle: other) 94 % of control; under setting [13], 118 % of control; under setting [14], 109 % of control.
On to `N#C/C(=C(/C#N)c1ccccc1)c1ccccc1`, for which the T/C is, setting by setting: under setting [10], 96 % of control; under setting [11], 94 % of control; (endpoint: mean survival time, dose: 400.0 mg/kg/injection, schedule: Q04DX003 (ip), vehicle: saline with Tween-80) 88 % of control.
In the case of `C[n+]1ccc(Nc2ccc(NC(=O)c3ccc(Nc4cc[n+](C)c5ccc([N+](=O)[O-])cc45)cc3[N+](=O)[O-])cc2)cc1`, the T/C by setting is: (endpoint: mean survival time, dose: 79.0 mg/kg/injection, schedule: Q04DX003 (ip), vehicle: saline with Tween-80) 122 % of control; under setting [10], 113 % of control; (endpoint: mean survival time, dose: 178.0 mg/kg/injection, schedule: Q04DX003 (ip), vehicle: saline with Tween-80) 152 % of control; (endpoint: mean survival time, dose: 266.0 mg/kg/injection, schedule: Q04DX003 (ip), vehicle: saline with Tween-80) 177 % of control and 187 % of control.
On to `O=C(N=C1OC2C(OC(=O)c3ccccc3)C(COC(=O)c3ccccc3)OC2N1C(=O)c1ccccc1)c1ccccc1` (stereo not given), for which the T/C was 100 % of control under setting [17]; 100 % of control under setting [18]; 87 % of control (endpoint: median survival time, dose: 100.0 mg/kg/injection, schedule: Q04DX003 (ip), vehicle: saline sonified); 100 % of control (endpoint: median survival time, dose: 200.0 mg/kg/injection, schedule: Q04DX003 (ip), vehicle: saline sonified); 100 % of control (endpoint: median survival time, dose: 400.0 mg/kg/injection, schedule: Q04DX003 (ip), vehicle: saline sonified).
`O=CC(=O)c1ccc(O)cc1`: the T/C by setting is: (endpoint: mean survival time, dose: 6.25 mg/kg/injection, schedule: Q01DX009 (ip), vehicle: saline) 101 % of control; (endpoint: mean survival time, dose: 12.5 mg/kg/injection, schedule: Q01DX009 (ip), vehicle: saline) 97 % of control; under setting [15], 100 % of control; under setting [16], 103 % of control; under setting [17], 108 % of control.
Take `S=C(S)Nc1ccc(Cc2ccc(NC(=S)S)cc2)cc1`: the T/C reads like this: under setting [2], 98 % of control; under setting [3], 96 % of control; under setting [6], 93 % of control.
Turning to `CCCCCCCCCCCCSC1=CC(=O)C(OC)=C(OC)C1=O`, the T/C runs as follows: (endpoint: mean survival time, dose: 0.78 mg/kg/injection, schedule: Q01DX009 (ip), vehicle: other) 95 % of control; (endpoint: mean survival time, dose: 1.56 mg/kg/injection, schedule: Q01DX009 (ip), vehicle: other) 95 % of control; (endpoint: mean survival time, dose: 3.13 mg/kg/injection, schedule: Q01DX009 (ip), vehicle: other) 97 % of control; (endpoint: mean survival time, dose: 6.25 mg/kg/injection, schedule: Q01DX009 (ip), vehicle: other) 97 % of control; under setting [20], 95 % of control; under setting [21], 94 % of control.
`COc1ccc(/C=C2\N=C(c3ccccc3)OC2=O)cc1OC`: the T/C is, setting by setting: under setting [17], 103 % of control; under setting [18], 98 % of control; under setting [19], 98 % of control.
As to `CC(C)(O)C1CC2C=CC1C2` (stereo not given), the T/C reads like this: under setting [7], 98 % of control; under setting [8], 102 % of control; under setting [9], 94 % of control.
Take `C=CC1CN2CCC1CC2C(O)c1ccnc2ccc(OC)cc12` (stereo not given) (tested in a mixture with another compound): the T/C was 92 % of control and 95 % of control under setting [1]; 95 % of control and 89 % of control under setting [4]; 103 % of control and 98 % of control under setting [2]; 99 % of control and 93 % of control under setting [10]; 96 % of control under setting [5]; 88 % of control and 95 % of control under setting [3]. Also, the T/C is, setting by setting: under setting [11], 92 % of control and 90 % of control; under setting [12], 89 % of control.
For `O=[N+]([O-])c1cccc(C=Nc2ccc3c(c2)C(Br)c2ccccc2-3)c1` (stereo not given), the T/C by setting is: under setting [10], 97 % of control; under setting [11], 90 % of control.
